Assay results: patent US7109160B1, “Peptides containing the motif IGD and their use as cell migration modulators” (University of Dundee, priority 1997, dated 2006)
“Also recorded” adds a separate entry of the source.

Legend:
[1] = tested on: human skin fibroblasts (SK319 and FSF44); assay: Inhibitors of early and late aspects of IGDS activity (pre-incubation protocols, collagen gel assay); assay type: cell-based; set-up: key to Inhibitory activity: early events / Inhibitory activity: late events: yes(+); no(−); settings: for inhibition at 10 µg/mL: Homo sapiens, Skin fibroblast; for effect on IGDS-induced cell migration (late events), in words / effect on initial IGDS signalling (early events), in words: Table 3
Procedure: (§1) Migration Assays. In the collagen gel assay, pre-formed 2 ml gels were overlaid with 1 ml of serum-free MEM (controls) or serum-free MEM containing the requisite concentration of effector molecule to give the desired final concentration. Trypsinised fibroblasts were suspended in serum-free MEM to give an inoculum containing 2×10^5 cells/ml and 1 ml of this was plated onto replicate control and test gels.
The specific effects of potential inhibitory molecules on such early and late events were examined by using the following experimental protocol: (a) pre-incubating cells with IGDS (SEQ ID NO 2) and inhibitor and then assaying these treated cells in the absence of both IGDS (SEQ ID NO 2) and inhibitor (note: this protocol provides data concerning the effects of inhibitor on the early events mediating IGDS (SEQ ID NO 2) activity), (b) pre-incubating cells with neither IGDS (SEQ ID NO 2) nor inhibitor and assaying them in the presence of both (the effects of inhibitor on both early and late events), (c) pre-incubating cells with IGDS (SEQ ID NO 2) alone and then assaying them in the presence of inhibitor only (the effects of inhibitor on late events), and finally, (d) pre-incubating cells with inhibitor alone and then assaying them in the presence of IGDS (SEQ ID NO 2) to provide control information regarding possibly persistent effects of inhibitor which would confound data interpretation. Data presented in Table IA are concerned with the effects of the synthetic RGDS (SEQ ID NO 6) and RGES (SEQ ID NO 5).

[2] = tested on: human skin fibroblasts (SK319 and FSF44); assay: Native collagen gel migration assay; assay type: cell-based; settings: for effect on cell migration into native type I collagen gels: human dermal fibroblasts, 4-day incubation, FIG. 1
Procedure: Assays were performed as described in Materials and Methods in Example 1. Results are normalised by expressing them as “relative stimulation” of migration, this being calculated by dividing the percentage of cells in the gel matrix for each experimental point by the control value obtained in that particular experiment. Data are presented as the mean ±SD of five experiments. For clarity, the shaded area indicates the spread of standard deviations for data points not plotted with error bars. Upper panel: results obtained with the indicated synthetic peptides. Lower panel: results obtained with native fibronectin (FN), and its cell-binding (Cell-BD) and gelatin-binding (Gel-BD) domains.
(§2) Cells. Experiments were performed with two lines of human skin fibroblasts (SK319 and FSF44, between passage 10–18) shown to be free of mycoplasmal contamination by staining with Hoechst 33256. Identical results were obtained with both lines and these cells are consequently not individually identified in the Figures. Stock cultures were maintained in Eagle's Minimal Essential (MEM), as previously described^7.
as §1

[3] = tested on: human skin fibroblasts (SK319 and FSF44); assay: Transmembrane migration assay (membranes coated with native type I collagen or gelatin); assay type: cell-based; settings: FIG. 2; for effect on cell migration through gelatin-coated membranes: gelatin (heat-denatured type I collagen)-coated membranes; for effect on cell migration through membranes coated with native collagen: native type I collagen-coated membranes
Procedure: Assays were performed as described in Materials and Methods in Example 1. Results from five experiments are presented as mean ±SD. Shaded area indicates the spread of standard deviations for data points not plotted with error bars. Panel A: results obtained with IGDS (SEQ ID NO 2) and the gelatin-binding domain (Gel-BD) on membranes coated with native collagen and gelatin. Panel B: results obtained with RGDS (SEQ ID NO 6), native fibronectin (FN), and its cell-binding domain (Cell-BD).
as §2
Polycarbonate membranes used in the transmembrane assay were immersed in an aqueous solution containing 10 μg/ml of either native type I collagen or heat-denatured type I collagen (gelatin) overnight at 37° C. and then air-dried. Assays were performed as previously described^7.

[4] = tested on: chick yolk sac membrane; assay: Chick yolk sac membrane angiogenesis assay; assay type: in vivo; settings: for Positive responses (%) / Positive responses (positive/total): assessed after 24 hr; for angiogenic response in the chick yolk sac membrane, in words: in vivo
Description: Dried methylcellulose pellets containing the test samples and control pellets (lacking the test samples) were placed on the yolk sac membrane of 6-day chick embryos, as described in Materials and Methods in Example 1. The elicited reaction was checked after six hours and assessed after 24 hr by observation of living embryos with a stereomicroscope. […] After assessment at 24 hr, selected membranes were fixed in 2.5% EM grade glutaraldehyde in 0.2 M phosphate buffer, pH 7.4. These preparations were then stained with 1% toluidine blue and photographed using a Leica DM LB microscope. […] Bar=250 μm.
Chick yolk sac membrane angiogenesis assay. The assay was performed essentially as described by Gush et al (1990) J. Med. Engineer. Tech. 14, 205–209. Accordingly, four-day-old fertilised eggs were cracked in a tumbler, covered with a Petri dish and incubated at 37° C. Two days later dried methylcellulose pellets containing the test samples and control pellets (lacking the test samples) were placed on the yolk sac membrane. The elicited angiogenic reaction was assessed after 24 hr by observation of living embryos with a stereomicroscope. Selected membranes were fixed in 2.5% EM grade glutaraldehyde in 0.2 M phosphate buffer (pH 7.4), dissected, stained with 1% toluidine blue and mounted on glass slides for photomicroscopy.

[5] = tested on: rat wound healing model; assay: Rat wound healing model (subcutaneous porcine dermal collagen film implants); assay type: in vivo; settings: 1 μg/ml in collagen film, implanted subcutaneously, 28 days, p < 0.01
Description: In this experimental system, 1 cm^2 pieces of porcine dermal collagen films impregnated with either control medium or medium containing the indicated concentration of test substance were implanted subcutaneously into rats. The animals were sacrificed 28 days later and the removed collagen implants fixed and sectioned for image analysis.

[6] = tested on: human skin fibroblasts (SK319 and FSF44); assay: Collagen gel assay with combinations of peptides (co-incubation); assay type: cell-based
Procedure: The collagen gel assay was performed in the presence of various combinations of the indicated peptides and the percentage of cells present within the gel matrix measured after a four-day incubation period. Data are expressed as mean ±SD obtained in three experiments. Panel A: combinations of the gelatin-binding domain (Gel-BD) and IGDS (SEQ ID NO 2); Panel B: combinations of IGDS (SEQ ID NO 2) and RGDS (SEQ ID NO 6); Panel C: combinations of IGDS (SEQ ID NO 2) and the cell-binding domain (Cell-BD).
as §1
The possible mechanistic relationship between IGDS (SEQ ID NO 2) and the gelatin-binding domain in which it is contained was further examined by co-incubating cells with suboptimal concentrations of each.
Possible mechanistic interactions between IGDS (SEQ ID NO 2) and RGDS (SEQ ID NO 6) were studied in similar co-incubation experiments.

[7] = tested on: human skin fibroblasts (SK319 and FSF44); assay: Pre-incubation of cells with IGDS, subsequent migration in native collagen gel assay; assay type: cell-based
Procedure: Confluent cells on plastic tissue culture dishes were washed 3× with serum-free MEM (SF-MEM) and then incubated for various times with the indicated concentrations of IGDS (SEQ ID NO 2) in SF-MEM. They were then trypsinised and washed extensively by repeated (5×) cycles of centrifugation and resuspension in SF-MEM. The behaviour of these pre-incubated cells was assessed in the collagen gel assay in the absence of further IGDS (SEQ ID NO 2)(indicated as IGDS (SEQ ID NO 2) not in assay). […] Data were obtained from three experiments and are expressed as mean ±SD.
as §1

[8] = Genistein 10 μg/ml, PD98059 2.0 μM, PKA inhib 5 nM
[9] = Genistein 10 μg/ml, PD98059 2.0 μM, PKA inhib 5 nM, no pre-incubation, IGDS and inhibitor in assay (early and late events)
[10] = Genistein 10 μg/ml, PD98059 2.0 μM, PKA inhib 5 nM, pre-incubation with IGDS alone, inhibitor only in assay (late events)
[11] = Genistein 10 μg/ml, PD98059 2.0 μM, PKA inhib 5 nM, pre-incubation with IGDS and inhibitor, neither in assay (early events)
[12] = peptide 10.0 μ molar, no pre-incubation, IGDS and peptide in assay (early and late events)
[13] = peptide 10.0 μ molar, pre-incubation with IGDS alone, peptide only in assay (late events)
[14] = peptide 10.0 μ molar, pre-incubation with IGDS and peptide, neither in assay (early events)

`O=c1c(-c2ccc(O)cc2)coc2cc(O)cc(O)c12` [Genistein] was tested, and the “Inhibitory activity: early events” value [1, 8] was “early events: +”, the “Inhibitory activity: late events” value [1, 8] was “late events: −” and the inhibition at 10 µg/mL [1, 9] was 94.1 ± 6.5%. The inhibition at 10 µg/mL [1, 10] was 0.9 ± 2.9%, the inhibition at 10 µg/mL [1, 11] was 96.7 ± 4% and the “effect on IGDS-induced cell migration (late events), in words” value (shortened to “effect on IGDS-induced cell migration”) [1] was “did not affect”. The “effect on initial IGDS signalling (early events), in words” value (from here on “effect on initial IGDS signalling”) [1] was “selectively blocked”.

For `COc1cccc(-c2cc(=O)c3ccccc3o2)c1N` [PD98059], the “Inhibitory activity: early events” value [1, 8] was “early events: +”, the “Inhibitory activity: late events” value [1, 8] was “late events: +” and the “% inhibition” value [1, 9] was 99.8 ± 3.8%. For the same molecule, the “% inhibition” value [1, 10] was 39.4 ± 5.0%, the “% inhibition” value [1, 11] was 90.5 ± 3.1% and the “effect on IGDS-induced cell migration” value [1] was “blocked”. For the same molecule, the “effect on initial IGDS signalling” value [1] was “blocked”.

“Ile-Gly-Asp (IGD; listed as Homo sapiens)” was tested, and the “concentration at which significant bioactivity (migration stimulation) is first manifest” value ([2]; collagen gel assay, FIG. 1A) was 10 to 100 µM and the “effect on cell migration into native type I collagen gels” value [2] was “stimulated cell migration”.

In the case of “Ile-Gly-Asp-Gin (IGDQ; listed as Homo sapiens)”, the “concentration at which significant bioactivity (migration stimulation) is first manifest” value ([2]; collagen gel assay, FIG. 1A) is reported as 0.1 µM and the “effect on cell migration into native type I collagen gels” value [2] is reported as “stimulated cell migration”.

For “Ile-Gly-Asp-Ser (IGDS; listed as Homo sapiens)”, the “concentration at which significant bioactivity (migration stimulation) is first manifest” value ([2]; collagen gel assay, FIG. 1A) was 0.1 µM, the shape of dose-response ([2]; collagen gel assay, FIG. 1A) was “bell-shaped dose-response” and the “effect on cell migration into native type I collagen gels” value [2] was “stimulated cell migration”. For the same molecule, the “effect on cell migration through gelatin-coated membranes” value [3] was “devoid of activity”, the “effect on cell migration through membranes coated with native collagen” value [3] was “stimulated cell migration” and the “Positive responses (%)” value ([4]; 5 ng/pellet) was “(50) %”. The “Positive responses (positive/total)” value ([4]; 5 ng/pellet) was 3/6, the “Positive responses (%)” value ([4]; 50 ng/pellet) was “(64) %” and the “Positive responses (positive/total)” value ([4]; 50 ng/pellet) was 7/11. For the same molecule, the “Positive responses (%)” value ([4]; 250 ng/pellet) was “(77) %”, the “Positive responses (positive/total)” value ([4]; 250 ng/pellet) was 10/13 and the “Positive responses (%)” value ([4]; 1000 ng/pellet) was “(64) %”. The “Positive responses (positive/total)” value ([4]; 1000 ng/pellet) was 9/14, the “Positive responses (%)” value ([4]; 3000 ng/pellet) was “(78) %” and the “Positive responses (positive/total)” value ([4]; 3000 ng/pellet) was 7/9. For the same molecule, the “angiogenic response in the chick yolk sac membrane, in words” value (from here on “angiogenic response … in words”) [4] was “elicited an angiogenic response; also recorded: stimulates angiogenesis”, the “angiogenic response elicited by pellet” value ([4]; pellet containing 1.0 μg, 6-day chick embryos, 24 hr, FIG. 7) was “positive angiogenic response” and the “Fibroblasts (% field)” value ([5]; control 8.3 ± 6.7) was 18.2 ± 9.4 % field. For the same molecule, the “Vessels (per field)” value ([5]; control 15.3 ± 5.5) was 26.7 ± 6.4 per field, the “activity on cell migration when present on its own” value ([6]; 0.01 μM (10^7 fM), FIG. 3A) was “inactive” and the “effect upon cell migration of co-incubation with the gelatin-binding domain” value ([6]; suboptimal concentrations of each, FIG. 3A) was “additive effect”. For the same molecule, the “persistence of effect on cell migration after pre-incubation” value ([7]; assayed in absence of further IGDS, dependent on pre-incubation time and peptide concentration, FIG. 4) was “persistent” and the “elevated migratory behaviour still manifest following passages in vitro” value ([7]; pre-incubated cells, data not shown) was 1–2 passages.

For “RGDS: structurally related RGDS tetrapeptide (synthetic peptide) (Peptide related to IGDS)”, the “effect on cell migration into native type I collagen gels” value [2] was “devoid of migration stimulating activity”, the “effect on cell migration through gelatin-coated membranes” value [3] was “inactive” and the “effect on cell migration through membranes coated with native collagen” value [3] was “inactive”. The “Positive responses (%)” value ([4]; 3000 ng/pellet) was “(9) %”, the “Positive responses (positive/total)” value ([4]; 3000 ng/pellet) was 1/11 and the “angiogenic response … in words” value [4] was “inactive”. For the same molecule, the “concentrations required for inhibition of IGDS activity” value ([6]; FIG. 3B, 3C) was “pmolar”, the “effect on the migration stimulating activity of IGDS (co-incubation)” value ([6]; FIG. 3B, 3C) was “effectively inhibited” and the “effect on IGDS-induced cell migration” value [1] was “inhibited”. For the same molecule, the “effect on initial IGDS signalling” value [1] was “inhibited”, the “Inhibitory activity: early events” value ([1]; peptide 10.0 μ molar) was “early events: +” and the “Inhibitory activity: late events” value ([1]; peptide 10.0 μ molar) was “late events: +”. The “% inhibition” value [1, 12] was 92.3 ± 2.1%, the “% inhibition” value [1, 13] was 96.5 ± 5.7% and the “% inhibition” value [1, 14] was 96.2 ± 4.8%.

With “RGES: RGES synthetic peptide (Peptide related to IGES)” the “Positive responses (%)” value ([4]; 3000 ng/pellet) was “(10) %”, the “Positive responses (positive/total)” value ([4]; 3000 ng/pellet) was 1/10 and the “angiogenic response … in words” value [4] was “inactive”. For the same molecule, the “effect on the migration stimulating activity of IGDS (co-incubation)” value ([6]; FIG. 3B, 3C) was “no effect”, the “effect on IGDS-induced cell migration” value [1] was “inactive” and the “effect on initial IGDS signalling” value [1] was “inactive”. For the same molecule, the “Inhibitory activity: early events” value ([1]; peptide 10.0 μ molar) was “early events: −”, the “Inhibitory activity: late events” value ([1]; peptide 10.0 μ molar) was “late events: −” and the “% inhibition” value [1, 12] was 1.2 ± 2.1%. The “% inhibition” value [1, 13] was 0.3 ± 2.8% and the “% inhibition” value [1, 14] was −1.0 ± 3.0%.
